Key:
[1] = tested on: rat stomach fundus; test: Cascade Assay, stomach (smooth muscle stimulant effect); assay type: cell-based; conditions: superfused, 50% of maximum (PGE1)
Method: (§1) The smooth muscle stimulant effects of test compounds were determined simultaneously in four different tissues that are known to be reactive to naturally occurring prostaglandins. Segments of rat stomach fundus, rat colon, chick rectum and rabbit aortic strip were obtained as described by: Vane, J. R., Brit. J. Pharmacol., 12: 344 (1957); Regoli, D. and Vane, J. R., Brit. J. Pharmacol., 23: 351 (1964); Mann, M. and West, G. B., Brit. J. Pharmacol., 5: 173 (1950); and Furchgott, R. F. and Bhadrakom, R., J. Pharmacol. Exper. Ther., 108: 129 (1953). One end of each preparation was tied to the bottom of a 10 ml tissue chamber and the other to a force displacement transducer (Grass FT-03) for continuous tension recording. The stomach, colon, and rectum segments were stretched to an initial tension of 1 g, while the aortic strip was subjected to 4 g. All preparations were left undisturbed for 1 hour prior to testing. The chambers were equipped with an external jacket through which water, maintained at 40° C, was circulated. Preparations were arranged one beneath the other in descending order (aorta, stomach, colon and rectum). Provision was made for bathing the four tissues successively so that they were superfused with the same fluid (Gaddum, H. J., Brit. J. Pharmacol., 6: 321 [1953]. The bathing fluid consisted of: Krebs bicarbonate solution aerated with a mixture of 95% O2 and 5% CO2 and warmed at 37° C; atropine sulphate (0.1 mcg/ml), phenoxybenzamine hydrochloride (0.1 mcg/ml), propranolol hydrochloride (3.0 mcg/ml), methysergide maleate (0.2 mcg/ml) and brompheniramine maleate (0.1 mcg/ml) were added to eliminate the possibility of smooth muscle responses being due to stimulation of cholinergic, adrenergic, serotonin or histamine receptors. The fluid was circulated by means of a roller pump and was allowed to drip over the preparations at a rate of 10 ml/minute.
(§2) Test compounds were diluted from stock solutions so as to administer quantities ranging from 0.001 100,000 ng in a volume of 0.5 ml. The compounds were applied by dripping on the uppermost tissue, at intervals of 10 to 20 minutes. Maximal increases in tension after each dose were measured and the results were used to plot dose-response curves. ED50 data (doses necessary to produce a response 50% of maximum) were then calculated graphically for each tissue.
(§3) Activity in each tissue was scored according to the following scale: […]

[2] = tested on: Rat Uterus; test: Effects on the Rat Uterus in Vitro; assay type: cell-based; conditions: Rattus norvegicus; in vitro, 29° C; response 50% that of carbachol; read-out: Test F Rat Uterus, Activity Value (ED50)
Method: The uterine stimulant effect of test compounds was determined in segments of uterus obtained from rats (140-160 g) pretreated subcutaneously with 1 mg/kg of diethyl-stilbesterol 18 hours before the experiment. The tissues were placed in 10 ml chambers filled with de-Jalon solution at 29° C, were aerated and bubbled with 95% O2 and 5% CO2, and were prepared for isometric recording with force displacement transducers. Preparations were stretched to an initial tension of 1 g and were left undisturbed for 30 minutes. Carbachol (1 mcg/ml) was then added to the bath and a response was recorded. After a 10 minute interval the carbachol procedure was repeated. Responses to increasing concentrations of a test compound (0.001 to 10 mcg/ml with one log intervals) were then recorded every 10 minutes. Preparations were washed four times after each response. All doses of compounds were administered in a 0.1 ml volume. Because it has been observed that the magnitude of the second response to carbachol (approximately 10% greater than the first) is close to the maximal response of the tissue, such value was taken as a measure of the sensitivity of a particular segment. Responses to each concentration of the test compound were expressed in terms of percentage of the second response to carbachol and the ED50 (dose producing a response 50% that of carbachol) was calculated graphically. Activity was scored according to the following scale: […]

[3] = tested on: rabbit aortic strip; test: Cascade Assay, aorta (smooth muscle stimulant effect); assay type: cell-based; conditions: superfused, 50% of maximum (PGA2)
Method: as §1, §2, §3

[4] = tested on: Human Platelet Aggregation; test: Inhibition of Human Platelet Aggregation; assay type: cell-based; conditions: in vitro
Method: The ability of test compounds to inhibit platelet aggregation was determined by a modification of the turbidometric technique of Born (Nature, 194:927 [1962]). Blood was collected from human volunteers who had not ingested aspirin or aspirin-containing products within the preceding two weeks in heparinized containers and was allowed to settle for one (1) hour. The platelet rich plasma (prp) supernates were collected and cooled. Siliconized glassware was used throughout.
In a representative assay 1.9 ml of PRP and 0.2 ml of test compound at the appropriate concentrations (0.001 to 100 mcgm), or 0.2 ml of distilled water (control procedure) were placed in sample cuvettes. The cuvettes were placed in a 37° C incubation block for 15 minutes, and then in a spectrophotometer linked to a strip chart recorder. After 30-60 seconds, 0.2 ml of a solution, prepared by diluting a calf-skin collagen solution 1:9 with Tyrodes' Solution, was added to each cuvette. Platelet aggregation was evidenced by a decrease in optical density.
An ED50 value was then determined graphically.

[5] = tested on: chick rectum; test: Cascade Assay, rectum (smooth muscle stimulant effect); assay type: cell-based; conditions: superfused, 50% of maximum (PGE1)
Method: as §1, §2, §3

[6] = tested on: Gastric Secretion; test: Effects on Gastric Secretion in the Rat; assay type: in vivo; conditions: pylorus-ligated rat, subcutaneous, 2 x 1.5 mg/kg (total 3.0 mg/kg), 4 hours
Method: A procedure based on that described by Lipmann (J. Pharm. Pharmacol., 21:335 [1968]) was used to assess the influence of test compounds on gastric secretion. Rats of one sex weighing 150 to 200 g were randomly divided into groups of six animals each and fasted for 48 hours previously to the experiments, water being available adlibitum. The animals were anesthetized with ether, the abdomen was opened through a midline incision and the pylorus was ligated. Test compounds were diluted from stock solution so as to administer a dose of 1.5 mg/kg in a volume equivalent to 1 ml/kg. Subcutaneous injections were applied immediately after surgery and again 2 hours later, so that a total dose of 3.0 mg/kg was administered. Dilutions were made with phosphate buffer (pH 7.38) as recommended by Lee et al. (Prostaglandins 3:29 [1973]), in order to insure adequate stability of drugs at the subcutaneous depot. Each compound was tested in one group of rats; an additional control group received only the vehicle.
Four hours after pyloric ligation the animals were killed with ether, the cardias ligated and the stomachs removed. The volume of gastric secretion was measured and the contents centrifuged at 500 rpm for 10 minutes. Total acid in the supernatant was titrated against a 0.1 N sodium hydroxide solution and the amount expressed in mEq.
Volume and total acid values of the treated group were compared with those of the controls by the "T" test. Antisecretory activity was scored according to the following scale: […]

[7] = tested on: rat colon; test: Cascade Assay, colon (smooth muscle stimulant effect); assay type: cell-based; conditions: superfused, 50% of maximum (PGF2α)
Method: as §1, §2, §3

[8] = tested on: steroidogenesis in the adrenal glands; conditions: hypophysectomized rats; cited from earlier work
[9] = tested on: adrenergic nerve endings; conditions: guinea pig; cited from earlier work
[10] = tested on: female reproductive system; conditions: in vivo; cited from earlier work
[11] = tested on: Femoral Blood Flow; test: Effects on Femoral Blood Flow in the Dog; assay type: in vivo; conditions: anesthetized mongrel dog, intraarterial, 0.001 to 10 mcg
Method: The peripheral vasodilator or constrictor effects of these compounds were determined in mongrel dogs of either sex, weighing between 10 and 20 kg anesthestized intravenously with 35 mg/kg of sodium pentobarbital. An external iliac artery was dissected immediately above the femoral arch for a length of approximately 5 cm and a previously calibrated, non-connulating electromagnetic flowmeter sensor with a lumen between 2.5 and 3.5 mm was placed snugly around the vessel. Cannulas were placed in a branch of the artery arising distally to the location of the flowmeter sensor for intraarterial drug administrations, in the contralateral femoral artery for systemic blood pressure recordings and in the trachea for artificial respiration with room air. Femoral blood flow and systemic blood pressure were continously recorded with an electromagnetic flowmeter and pressure tranducer, respectively.
After an adequate control period, test compounds were injected intraarterially at one log-spaced doses ranging from 0.001 to 10 mcg., in a volume of 0.5 ml and at 5 to 10 minute intervals. Maximum changes in bloodflow, as well as any variations in blood pressure, were tabulated for each dose in absolute values (ml/min. and mmHg). The calculations were made taking as control values those existing immediately before administration of each dose. The direction of the observed change (plus for increase and minus for decrease) was also noted. The dose changing bloodflow by 100 ml/min (ED100 ml/min) was calculated graphically and was used for scoring activity as follows: […]

[12] = tested on: Blood Pressure and Heart Rate; test: Effects on Blood Pressure and Heart Rate in the Anesthetized Cat; assay type: in vivo; conditions: Felis catus, intravenous, 0.01 to 10.0 mcg/kg, scored only on hypotension, read-out: Test D Activity Value (ED50 mmHg, decrease in blood pressure);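 also: Anesthetized cats given intravenous doses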
Method: The acute effects of test compounds on blood pressure and heart rate were determined in cats of either sex anesthetized with a mixture of pentobarbital sodium (35 mg/kg, i.v.) and barbital sodium (100 mg/kg, i.v.). Cannulas were placed in the trachea to allow adequate spontaneous ventilation, in a femoral artery for blood pressure recording with a strain gage transducer, and in a saphenous vein for drug administration. Heart rate was recorded by means of a cardiotachometer driven by the R wave of the electrocardiogram. After a period of 10 minutes of stable recordings of blood pressure and heart rate, the test compound was administered intravenously at doses increasing from 0.01 to 10.0 mcg/kg, spaced one log and injected at 10 minutes intervals. All doses were injected in a volume of 0.1 ml/kg. Modifications of blood pressure and heart rate induced by the test compound were expressed both in absolute units (mmHg and beats/minutes) and as percent of values recorded immediately before administration of each dose. Biphasic responses were tabulated in the order in which they occur. The direction of the observed changes was also noted (+ for increases and - for decreases).
Activity of compounds in this test was judged only on the basis of the degree of hypotension observed. Thus, the ED50 mmHg (dose decreasing blood pressure by 50 mmHg) was calculated graphically and the compound scored according to the following scale: […]

Row | Compound | Test E Cascade Assay, Stomach, Activity Value (ED50) [1] | EC50 [2] [µg/mL] | Test E Cascade Assay, Aorta, Activity Value (ED50) [3] | inhibition of aggregation of human platelets, in words [4] | Test E Cascade Assay, Rectum, Activity Value (ED50) [5] | Test B Activity Value (% decrease in acidity, inhibition of gastric secretion) [6] | Test E Cascade Assay, Colon, Activity Value (ED50) [7] | steroidogenesis in the adrenal glands [8] | transmitter release from adrenergic nerve endings [9] | effect in the female reproductive system (fertility, labor, abortion) [10] | Test C Activity Value (ED100 ml/min, increase in femoral blood flow) [11] | ED (50 mmHg) [12] [µg/kg]
1 | COC(=O)CCCCCC[C@H]1C(=O)C[C@@H](O)[C@@H]1/C=C/[C@@H](O)C1(C)CC2(CCC2)C1 [TR-4845, Methyl 7-{3R-hydroxy-5-oxo-2R-[3R-hydroxy-3-(2-methylspiro[3.3]hept-2-yl)-1E-propenyl]cyclopent-1R-yl}heptanoate] | 0 (>10000) | > 10 | 0 (>10000) | inhibit aggregation of platelets | 0 (>10000) | 3 (51-75) | 0 (>10000) | – | – | – | – | –
2 | CCCCC[C@H](O)/C=C/[C@@H]1[C@@H](CCCCCCC(=O)O)[C@@H](O)C[C@H]1O [PGF1α] | – | – | – | – | – | – | – | stimulate steroidogenesis in the adrenal glands | – | – | – | –
3 | CCCCC[C@H](O)/C=C/[C@H]1[C@H](O)CC(=O)[C@@H]1C/C=C\CCCC(=O)O [PGE2] | – | – | – | – | – | – | – | stimulate steroidogenesis in the adrenal glands | inhibit transmitter release from adrenergic nerve endings | potent oxytocic effects in inducing labor | – | –
4 | O=C(O)CCCCCC[C@H]1C(=O)CC[C@@H]1/C=C/[C@H](O)C1CCC2(CCCCC2)CC1 (relative stereo) [TR-4020, dl 7-{5-oxo-2R-[3R-hydroxy-3-(spiro[5.5]undecan-3-yl)-1E-propenyl]cyclopent-1R-yl}heptanoic acid] | 2 (101 - 1000) | > 10 | 0 (>10000) | – | 0 (>10000) | 0 (<26) | 0 (>10000) | – | – | – | 0 (>10.0) | > 10
5 | O=C(O)CCC/C=C\C[C@H]1C(=O)CC[C@@H]1/C=C/[C@H](O)C1CC2(CCC2)C1 (relative stereo) [TR-4147, dl 7-{5-oxo-2R-[3R-hydroxy-3-(spiro[3.3]hept-2-yl)-1E-propenyl]cyclopent-1R-yl}hept-5Z-enoic acid] | 2 (101 - 1000) | > 10 | 1 (1001 - 10000) | – | 2 (101 - 1000) | 0 (<26) | 0 (>10000) | – | – | – | 0 (>10.0) | 0.11 to 1
